Assay [1] concerns panel of 60 human tumor cell lines. Description: NCI 60-cell line one-dose screen (mean). The assay is classed as cell-based. The settings on record: mean of the 60 cell lines, single dose 10^−5 M, read-out: Mean % Growth Inhibition. As to the method:
The newly synthesized compounds were screened for their in vitro anticancer activity at the Developmental Therapeutic Program (DTP) of the National Cancer Institute (NCI). The screening involved a panel of 60 human tumor cell lines consisting of 9 tissue types to screen for potential anti-cancer agents. The primary screening of submitted compounds was performed by testing a single dose (10^−5 M) in the full NCI-60 panel. The detailed % inhibition by the tested compounds against the 60 cell lines is shown in Tables S1–S3 in the Supporting Information.

Assay [2] concerns IGROV1. Description: NCI-60 one-dose screen. Conditions: Homo sapiens, IGROV-1; IGROV1, Ovarian Cancer panel; single dose 10^−5 M; read-out: Growth inhibition %. The assay is classed as cell-based.
In assay [3] the test system is HCT-116 cells. Description: Cell cycle analysis (PI, flow cytometry). The assay is classed as cell-based, human. The settings on record: 10 µM, 24 h, PI staining. As to the method:
To analyze cell cycle changes, cells permeated at 1 × 10^6 × cells/mL were trypsinized and diluted and then fixed in 70% ethanol at 4 °C. Cell cycle arrest in HCT-116 cells following compound exposure was accomplished using propidium iodide (Sigma-Aldrich, St. Louis, MI, USA). The markers were then assessed using a FACS-Caliburflow cytometer (Beckman Coulter, Taipei, Taiwan) and analyzed using WinMDI software. […]
(§1) Figure 3 Apoptosis induction and cell cycle effects of compounds in HCT-116 cells. (A) The apoptotic population of HCT-116 cells was analyzed using flow cytometry after treatment with 10 µM of the test compound for 24 h followed by Annexin V/propidium iodide (PI) staining. (B) After treatment with compound concentrations of 10 µM for 24 h, cells were fixed, stained with propidium iodide (PI), and analyzed for cell cycle distribution. Results are expressed as the means ± SD from three independent experiments (* p < 0.05 and ** p < 0.01 *** p < 0.001, control versus compound).
In general terms: A flow cytometer gives signals particle by particle.

The target of assay [4] is T1, human DNA Topo II (Homo sapiens, UniProt P11388).
T1 construct: purchased Topogen, Columbus, OH, USA
Description: Topo II-mediated relaxation of supercoiled pHOT1 plasmid DNA. The assay is classed as biochemical. The settings on record: for DNA band pattern in Topo II relaxation assay: at 1 and 5 µM doses, similar to doxorubicin. The protocol:
Consequently, the effects of the synthesized compounds on Topo II activity were evaluated with a cell-free assay using a purified human DNA Topo II-protein-mediated relaxation of the negatively supercoiled pHOT1 plasmid DNA [40]. […] Two Topo II inhibitors (doxorubicin and etoposide) were used as positive controls.
The reaction was terminated by adding 2 μL of 10% SDS, followed by 2.5 μL of proteinase K (50 μg/mL) to digest the bound protein. The system was incubated at 37 °C for 15 min. The DNA product was finally analyzed using electrophoresis on a vertical 1.5% agarose gel at 2 volts/cm in 1 × TAE buffer and photographed using the Eagle Eye II system (Stratagene, La Jolla, CA, USA).
Figure 2 Effects of compounds on topoisomerase II activity. Effects on Topo II-mediated relaxation of supercoiled pHOT1 plasmid DNA in a cell-free system. Positive control: etoposide (10 µM); doxorubicin (5 µM) used as Topo II poison (induction of linear DNA); DNA relaxation: plasmid DNA + topo IIα + solvent control. Nick, nicked DNA; Sc, supercoiled DNA; Lin, linear DNA.

Assay [5] deals with CCRF-CEM. Description: NCI-60 one-dose screen. The assay is classed as cell-based. Conditions: Homo sapiens, Leukemia panel, single dose 10^−5 M, read-out: Growth inhibition %.
In assay [6] the test system is HCT-116 cells. Description: Annexin-V/PI apoptosis assay. The settings on record: 10 µM, 24 h. The assay is classed as cell-based, human. As to the method: For the same set of compounds, the apoptosis-inducing effects in HCT-116 cells were assessed using Annexin-V/PI double staining at 10 µM (Figure 3).
The number of apoptotic/necrotic cells was analyzed using flow cytometry following the manufacturer’s protocol. Markers were assessed using a FACS-Caliburflow cytometer (Beckman Coulter, Taipei, Taiwan) and analyzed using WinMDI 2.8 software.
as §1

Results on ten molecules are retold here after publication PMC9866191, “Novel 9-Benzylaminoacridine Derivatives as Dual Inhibitors of Phosphodiesterase 5 and Topoisomerase II for the Treatment of Colon Cancer” (Molecules, 2023).

“Also recorded” adds a separate entry of the source.

What is called inhibition is the percentage by which the read-out fell short of the control.

T1 sequence (P11388 whole entry): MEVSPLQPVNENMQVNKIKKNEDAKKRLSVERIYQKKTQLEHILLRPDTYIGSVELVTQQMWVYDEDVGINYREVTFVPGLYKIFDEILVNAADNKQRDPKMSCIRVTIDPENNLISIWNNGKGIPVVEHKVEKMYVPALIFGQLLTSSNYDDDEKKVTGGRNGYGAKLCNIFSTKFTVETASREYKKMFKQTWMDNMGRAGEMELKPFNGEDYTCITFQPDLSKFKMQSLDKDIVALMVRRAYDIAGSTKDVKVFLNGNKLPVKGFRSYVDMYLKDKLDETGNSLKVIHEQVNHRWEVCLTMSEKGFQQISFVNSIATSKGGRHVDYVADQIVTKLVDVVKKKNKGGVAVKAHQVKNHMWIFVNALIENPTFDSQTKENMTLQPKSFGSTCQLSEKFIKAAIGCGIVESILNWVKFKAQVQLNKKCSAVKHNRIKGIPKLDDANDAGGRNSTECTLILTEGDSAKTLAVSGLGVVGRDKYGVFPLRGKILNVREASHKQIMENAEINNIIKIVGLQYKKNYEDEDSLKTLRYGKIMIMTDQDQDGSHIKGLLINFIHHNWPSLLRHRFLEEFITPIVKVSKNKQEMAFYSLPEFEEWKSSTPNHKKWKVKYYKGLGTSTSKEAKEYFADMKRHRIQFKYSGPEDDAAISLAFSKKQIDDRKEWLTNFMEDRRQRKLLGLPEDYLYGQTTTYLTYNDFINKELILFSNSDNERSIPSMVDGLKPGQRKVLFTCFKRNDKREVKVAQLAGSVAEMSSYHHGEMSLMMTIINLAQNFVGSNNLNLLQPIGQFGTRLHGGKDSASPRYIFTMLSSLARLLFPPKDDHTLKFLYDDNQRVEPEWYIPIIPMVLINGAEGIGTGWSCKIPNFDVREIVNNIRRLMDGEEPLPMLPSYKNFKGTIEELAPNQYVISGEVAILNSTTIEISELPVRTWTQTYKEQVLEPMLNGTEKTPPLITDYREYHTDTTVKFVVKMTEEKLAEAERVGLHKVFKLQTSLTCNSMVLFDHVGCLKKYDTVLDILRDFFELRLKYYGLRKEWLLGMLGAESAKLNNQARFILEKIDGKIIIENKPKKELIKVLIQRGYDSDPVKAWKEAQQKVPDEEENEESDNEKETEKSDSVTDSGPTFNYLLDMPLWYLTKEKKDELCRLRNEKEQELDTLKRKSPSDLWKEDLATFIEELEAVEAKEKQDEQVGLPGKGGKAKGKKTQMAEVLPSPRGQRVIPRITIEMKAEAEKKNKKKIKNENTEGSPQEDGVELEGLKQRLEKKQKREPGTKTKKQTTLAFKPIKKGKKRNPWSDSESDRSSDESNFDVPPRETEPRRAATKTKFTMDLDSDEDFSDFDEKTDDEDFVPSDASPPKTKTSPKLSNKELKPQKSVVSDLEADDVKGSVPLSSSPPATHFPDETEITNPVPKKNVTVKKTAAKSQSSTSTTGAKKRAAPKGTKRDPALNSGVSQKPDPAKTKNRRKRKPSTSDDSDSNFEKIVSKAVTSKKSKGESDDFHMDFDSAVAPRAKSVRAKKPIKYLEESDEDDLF

As for `c1coc(CNc2c3ccccc3nc3ccccc23)c1` [Compound 14, Acridin-9-yl-furan-2-ylmethyl-amine], the results for the inhibition at 10 µM in assay [1], in assay [2] and in assay [5] were 38.4%, 38.1% and 42.9%, respectively. Also, the “effect on cell cycle” value in assay [3] is listed as “arrested the cell cycle in the S phase”. Moreover, in assay [4], the “DNA band pattern in Topo II relaxation assay” value (“DNA band pattern” below) was “larger base pair band than nicked DNA”. For the same molecule, the induction of apoptosis in assay [6] is listed as 20%–50%.
As to `COc1ccc(CNc2c3ccccc3nc3ccccc23)cc1OC` [Compound 18, Acridin-9-yl-(3,4-dimethoxybenzyl)-amine], the values for the inhibition at 10 µM in assay [1], in assay [2] and in assay [5] were 81.6%, 89.1% and 69.5%, respectively. Besides, in assay [3], the “effect on cell cycle” value is “increased the number of cells in the S phase and G2/M phase”. Also, the “DNA band pattern” value in assay [4] is reported as “larger base pair band than nicked DNA”. In assay [6], the induction of apoptosis was 20%–50%.
As to `Fc1cccc(CNc2c3ccccc3nc3ccccc23)c1F` [Compound 20, Acridin-9-yl-(2,3-difluorobenzyl)-amine], the inhibition at 10 µM in assay [1] amounted to 40.7%; in assay [2] it was 47.3%; in assay [5], 37.6%. Besides, the “effect on cell cycle” value in assay [3] is “cell cycle arrest in the S phase and reduced the percentage of cells in the G2/M phase”. The “DNA band pattern” value in assay [4] is listed as “larger base pair band than nicked DNA”. Besides, the induction of apoptosis in assay [6] was 20%–50%.
In the case of `Fc1ccc(CNc2c3ccccc3nc3ccccc23)c(F)c1` [Compound 21, Acridin-9-yl-(2,4-difluorobenzyl)-amine], the inhibition at 10 µM stood at 56.4% in assay [1], 64.3% in assay [2] and 46.1% in assay [5]. Moreover, the “effect on cell cycle” value in assay [3] is “cell cycle arrest in the G2/M phase”. Further, the “DNA band pattern” value in assay [4] is “larger base pair band than nicked DNA”. Further, the induction of apoptosis entry in assay [6] is listed as “less than 20%”.
Regarding `Fc1ccc(CNc2c3ccccc3nc3ccccc23)cc1F` [Compound 22, Acridin-9-yl-(3,4-difluorobenzyl)-amine], the inhibition at 10 µM is 64.8% in assay [1], 77.2% in assay [2] and 58.5% in assay [5]. Besides, the “effect on cell cycle” value in assay [3] is given as “cell cycle arrest in the G2/M phase”. In addition, the “DNA band pattern” value in assay [4] is reported as “larger base pair band than nicked DNA”. In addition, the induction of apoptosis entry in assay [6] was “less than 20%”.
For the molecule `c1csc(-c2ccc(CNc3c4ccccc4nc4ccccc34)cc2)c1` [Compound 24, Acridin-9-yl-(4-thiophen-2-yl-benzyl)-amine], the inhibition at 10 µM in assay [1] was 96.9%; in assay [2] it was 90%; in assay [5], 97.4%. Moreover, the “effect on cell cycle” value in assay [3] is given as “arrested the cell cycle in the S phase”. In assay [4], the “DNA band pattern” value is “larger base pair band than nicked DNA”. Moreover, in assay [6], the induction of apoptosis is given as 20%–50%.
For `COc1ccc2nc3ccccc3c(NCc3ccccc3)c2c1` [Compound 25, Benzyl-(2-methoxyacridin-9-yl)-amine], the inhibition at 10 µM in assay [1] is 80%; in assay [2], 83.6%; in assay [5], 66.6%. Moreover, in assay [3], the “effect on cell cycle” value was “cell cycle arrest in the G2/M phase; also recorded: increased the number of cells in the S phase and G2/M phase”. Also, in assay [4], the “DNA band pattern” value is given as “larger base pair band than nicked DNA”. In assay [6], the induction of apoptosis is 20%–50%.
As to `COc1ccc2nc3ccccc3c(NCc3ccc(F)cc3)c2c1` [Compound 28, (4-Fluorobenzyl)-(2-methoxyacridin-9-yl)-amine], the inhibition at 10 µM was 92.2% in assay [1], 91.8% in assay [2] and 81.7% in assay [5]. Moreover, in assay [3], the “effect on cell cycle” value was “increased the number of cells in the S phase and G2/M phase”. Besides, the “concentration at which Topo II inhibition (increase of supercoiled DNA) is shown” value in assay [4] (cell-free relaxation assay, gel) was found to be 1 µM. In addition, the induction of apoptosis entry in assay [6] is on record as “less than 20%”.
With `Cc1ccc2nc3ccccc3c(NCc3ccccc3)c2c1` [Compound 30, Benzyl-(2-methylacridin-9-yl)-amine], the figures for the inhibition at 10 µM in assay [1], in assay [2] and in assay [5] were 64.5%, 84.2% and 65.1%, respectively. Also, in assay [3], the “effect on cell cycle” value is reported as “cell cycle arrest in the G2/M phase”. For the same molecule, in assay [4], the “DNA band pattern” value is “larger base pair band than nicked DNA”. Besides, the induction of apoptosis entry in assay [6] is on record as “less than 20%”.
Turning to `Cc1ccc2nc3ccccc3c(NCc3ccc(Cl)cc3)c2c1` [Compound 31, (4-Chlorobenzyl)-(2-methyl-acridin-9-yl)-amine], the inhibition at 10 µM in assay [1] was 66.9%; in assay [2], 72.9%; in assay [5], 81.8%. The “effect on cell cycle” value in assay [3] was “arrested the cell cycle in the S phase”. In addition, in assay [4], the “DNA band pattern” value was “larger base pair band than nicked DNA”. The induction of apoptosis in assay [6] was 20%–50%.
